Data reported in US20230192691A1, “HETEROCYCLIC COMPOUNDS AS BTK INHIBITORS” (Beijing InnoCare Pharma Tech Co., Ltd., priority 2020, published 2023).

Assays:
[1] = molecular target: T1, human-derived recombinant BTK protein (Homo sapiens, UniProt Q06187); experiment: BTK activity inhibition assay (HTRF in vitro kinase assay); type: biochemical; conditions: 40 μM ATP, 0.2 ng/μL BTK
T1 construct: purchased Carna Biosciences 08-180
Experimental: In vitro kinase assay was used to evaluate the effects of compounds of the present invention on BTK activity (Table 1).
(§1) By using the homogeneous time-resolved fluorescence (HTRF) kinase detection kit (Cisbio, catalog number 62TK0PEC), the enzymatic activity of BTK is determined by detecting the phosphorylation level of the substrate in the kinase reaction. The reaction buffer contains the enzyme reaction buffer (1×) from the kit, 5 mM MgCl2, 1 mM DTT, 10 nM SEB and 0.01% Tween-20; the kinase reaction solution contains human-derived recombinant BTK protein (Carna Biosciences, Catalog No. 08-180) diluted to 0.2 ng/μL with the reaction buffer; the substrate reaction solution contains biotin-labeled tyrosine kinase substrate diluted to 0.5 μM with the reaction buffer and 40 μM ATP; the detection buffer contains Eu^3+-labeled cage antibody diluted to 0.05 ng/μL and streptavidin-labeled XL665 antibody diluted to 31.25 nM with the reaction buffer; the test compound is dissolved and diluted to 100 μM with DMSO, followed by a 4-fold serial dilution with DMSO to the lowest concentration of 6.1 nM and finally 40-time dilution with the reaction buffer for each concentration point. If the IC50 value of the compound is very low, the initial concentration of the compound is reduced.
(§2) Add 4 μL test compound solution and 2 μL kinase reaction solution to a 384-well detection plate (Corning, catalog number 3674), mix well and incubate at room temperature for 15 minutes; add 4 μL substrate reaction solution and incubate for 50 minutes; add 10 μL detection buffer, mix well and stand for 60 minutes; detect signal at 620 nm and 665 nm using an Envision plate reader (Perkin Elmer). The signal value (absorbance at 665 nm/absorbance at 620 nm) is positively correlated with the degree of phosphorylation of the substrate, thereby detecting the kinase activity of BTK. In this experiment, the group without BTK is the negative control (100% inhibition) and the group with BTK but no compound is the positive control (0% inhibition). The inhibition curve is plotted and the corresponding IC50 value of the test compound is calculated using XLfit software (ID Business Solutions Ltd., UK).

[2] = molecular target: T2, human recombinant BTK C481S protein (Homo sapiens, UniProt Q06187, C481S); experiment: BTK C481S activity inhibition assay (HTRF in vitro kinase assay); type: biochemical; conditions: 35 μM ATP, 1.5 ng/μL BTK C481S
T2 construct: made in house
T2 sequence (Q06187 whole entry C481S): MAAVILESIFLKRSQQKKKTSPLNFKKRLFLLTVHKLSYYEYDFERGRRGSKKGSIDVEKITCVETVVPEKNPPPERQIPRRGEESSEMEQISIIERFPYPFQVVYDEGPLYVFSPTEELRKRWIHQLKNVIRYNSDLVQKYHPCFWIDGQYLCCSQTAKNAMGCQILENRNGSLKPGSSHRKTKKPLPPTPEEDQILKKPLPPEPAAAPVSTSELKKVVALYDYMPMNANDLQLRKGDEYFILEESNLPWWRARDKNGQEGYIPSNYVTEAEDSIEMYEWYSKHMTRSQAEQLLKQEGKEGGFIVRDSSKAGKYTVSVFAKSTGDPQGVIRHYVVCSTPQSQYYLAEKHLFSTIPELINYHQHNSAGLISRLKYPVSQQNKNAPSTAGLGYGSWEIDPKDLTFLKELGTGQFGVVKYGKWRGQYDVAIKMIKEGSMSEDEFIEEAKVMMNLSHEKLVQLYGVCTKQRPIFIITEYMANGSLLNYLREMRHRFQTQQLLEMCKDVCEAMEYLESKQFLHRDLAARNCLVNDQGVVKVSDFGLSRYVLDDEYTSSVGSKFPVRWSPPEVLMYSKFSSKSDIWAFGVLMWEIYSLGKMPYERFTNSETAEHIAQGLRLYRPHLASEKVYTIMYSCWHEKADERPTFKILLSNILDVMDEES
Experimental: In vitro kinase assay was used to evaluate the effects of compounds of the present invention on BTK C481S activity (Table 1).
as §1, with “BTK C481S” for “BTK”, “nM SEB,” for “nM SEB”, “contains human” for “contains human-derived”, “protein (purified in-house)” for “protein (Carna Biosciences, Catalog No. 08-180)”, “to 1.5” for “to 0.2”, “and 35” for “and 40”
as §2, with “activity of BTK C481S. In this” for “activity of BTK. In this”, “with BTK C481 S but no” for “with BTK but no”, “XLfit software (TD Business Solutions” for “XLfit software (ID Business Solutions”

T1 sequence (Q06187 whole entry): as the sequence (Q06187 whole entry C481S) above, with S481C counted along it

Structure (SMILES) | IC50 [1] | IC50 [2]
COc1ccc(F)cc1C(=O)NCc1ccc(-c2nn(C3CCOCC3)c3ccnc(N)c23)cc1 [Compound 1, N-(4-(4-amino-1-(tetrahydro-2H-pyran-4-yl)-1H-pyrazolo[4,3-c]pyridin-3-yl)benzyl)-5-fluoro-2-methoxybenzamide] | 17 nM | 3.5 nM
COc1ccc(F)cc1C(=O)NCc1ccc(-c2nn(C3CCC(CO)CC3)c3ccnc(N)c23)cc1 (centres unmarked) [Compound 2, N-(4-(4-amino-1-(4-(hydroxymethyl)cyclohexyl)-1H-pyrazolo[4,3-c]pyridin-3-yl)benzyl)-5-fluoro-2-methoxybenzamide] | 1.7 nM | 2.5 nM
COc1ccc(F)cc1C(=O)NCc1ccc(-c2nn([C@H]3CC[C@@H](O)CC3)c3ccnc(N)c23)cc1 [Compound 3, N-(4-(4-amino-1-((1s,4s)-4-hydroxycyclohexyl)-1H-pyrazolo[4,3-c]pyridin-3-yl)benzyl)-5-fluoro-2-methoxybenzamide] | 3.2 nM | 4.6 nM
COc1ccc(F)cc1C(=O)NCc1ccc(-c2nn([C@H]3CC[C@H](O)CC3)c3ccnc(N)c23)cc1 [Compound 4, N-(4-(4-amino-1-((1r,4r)-4-hydroxycyclohexyl)-1H-pyrazolo[4,3-c]pyridin-3-yl)benzyl)-5-fluoro-2-methoxybenzamide] | 2.3 nM | 3 nM
COc1ccc(F)cc1C(=O)NCc1ccc(-c2nc([C@H]3CC[C@H](CO)CC3)n3ccnc(N)c23)cc1 [Compound 5, N-(4-(8-amino-3-((1r,4r)-4-(hydroxymethyl)cyclohexyl)imidazo[1,5-a]pyrazin-1-yl)benzyl)-5-fluoro-2-methoxybenzamide] | 4.6 nM | 2.6 nM
COc1ccc(F)cc1C(=O)NCc1ccc(-c2nc(N3CCC(CO)CC3)n3ccnc(N)c23)cc1 [Compound 6, N-(4-(8-amino-3-(4-(hydroxymethyl)piperidin-1-yl)imidazo[1,5-a]pyrazin-1-yl)benzyl)-5-fluoro-2-methoxybenzamide] | 4.6 nM | 3.3 nM
COc1ccc(F)cc1C(=O)NCc1ccc(-c2nc([C@H]3CC[C@H](CN)CC3)n3ccnc(N)c23)cc1 [Compound 7, N-(4-(8-amino-3-((1r,4r)-4-(aminomethyl)cyclohexyl)imidazo[1,5-a]pyrazin-1-yl)benzyl)-5-fluoro-2-methoxybenzamide] | 3.4 nM | 1.7 nM
COc1ccc(F)cc1C(=O)NCc1ccc(-c2nc(C3CCC(CO)OC3)n3ccnc(N)c23)cc1 (centres unmarked) [Compound 8, N-(4-(8-amino-3-(6-(hydroxymethyl)tetrahydro-2H-pyran-3-yl)imidazo[1,5-a]pyrazin-1-yl)benzyl)-5-fluoro-2-methoxybenzamide] | 1.2 nM | 0.8 nM
Nc1nccn2c(C3CCC(CO)OC3)nc(-c3ccc(CNC(=O)c4ccccn4)cc3)c12 (centres unmarked) [Compound 9, N-(4-(8-amino-3-(6-(hydroxymethyl)tetrahydro-2H-pyran-3-yl)imidazo[1,5-a]pyrazin-1-yl)benzyl)picolinamide] | 718 nM | 498 nM
COc1ccccc1C(=O)NCc1ccc(-c2nc(C3CCC(CO)OC3)n3ccnc(N)c23)cc1 (centres unmarked) [Compound 10, N-(4-(8-amino-3-(6-(hydroxymethyl)tetrahydro-2H-pyran-3-yl)imidazo[1,5-a]pyrazin-1-yl)benzyl)-2-methoxybenzamide] | 14 nM | 3.6 nM
COc1ccccc1C(=O)NCc1ccc(-c2nc(C3CCC(CO)OC3)n3ccnc(N)c23)cc1F (centres unmarked) [Compound 11, N-(4-(8-amino-3-(6-(hydroxymethyl)tetrahydro-2H-pyran-3-yl)imidazo[1,5-a]pyrazin-1-yl)-2-fluorobenzyl)-2-methoxybenzamide] | 20 nM | 3.9 nM
COc1ccc(F)cc1C(=O)NCc1ccc(-c2nc(C3CCCC3)n3ncnc(N)c23)cc1 [Compound 12, N-(4-(4-amino-7-cyclopentylimidazo[5,1-f][1,2,4]triazin-5-yl)benzyl)-5-fluoro-2-methoxybenzamide] | 3 nM | 
COc1ccc(F)cc1C(=O)NCc1ccc(-c2nc([C@H]3CC[C@H](C(=O)O)CC3)n3ccnc(N)c23)cc1 [Compound 13, (1r,4r)-4-(8-amino-1-(4-((5-fluoro-2-methoxybenzamido)methyl)phenyl)imidazo[1,5-a]pyrazin-3-yl)cyclohexane-1-carboxylic acid] | 1.4 nM | 0.8 nM
COc1ccc(F)cc1C(=O)NCc1ccc(-c2nc([C@H]3CC[C@H](CO)CC3)n3ncnc(N)c23)cc1 [Compound 14, N-(4-(4-amino-7-((1r,4r)-4-(hydroxymethyl)cyclohexyl)imidazo[5,1-f][1,2,4]triazin-5-yl)benzyl)-5-fluoro-2-methoxybenzamide] | 3.2 nM | 2.9 nM
COc1ccc(F)cc1C(=O)NCc1ccc(-c2nc([C@H]3CC[C@H](C(=O)O)CC3)n3ncnc(N)c23)cc1 [Compound 15, (1r,4r)-4-(4-amino-5-(4-((5-fluoro-2-methoxybenzamido)methyl)phenyl)imidazo[5,1-f][1,2,4]triazin-7-yl)cyclohexane-1-carboxylic acid] | 1.4 nM | 1.1 nM
COc1ccc(F)cc1C(=O)NCc1ccc(-c2nc(C3CCCOC3)n3ncnc(N)c23)cc1 (centres unmarked) [Compound 16, N-(4-(4-amino-7-(tetrahydro-2H-pyran-3-yl)imidazo[5,1-f][1,2,4]triazin-5-yl)benzyl)-5-fluoro-2-methoxybenzamide] | 1.8 nM | 1.1 nM
COc1ccc(F)cc1C(=O)NCc1ccc(-c2nc(C3CCOC3)n3ncnc(N)c23)cc1 (centres unmarked) [Compound 17, N-(4-(4-amino-7-(tetrahydrofuran-3-yl)imidazo[5,1-f][1,2,4]triazin-5-yl)benzyl)-5-fluoro-2-methoxybenzamide] | 6.3 nM | 2.4 nM
[2H]C([2H])([2H])Oc1ccc(F)cc1C(=O)NCc1ccc(-c2nc([C@H]3CC[C@H](CO)CC3)n3ncnc(N)c23)cc1 [Compound 18, N-(4-(4-amino-7-((1r,4r)-4-(hydroxymethyl)cyclohexyl)imidazo[5,1-f][1,2,4]triazin-5-yl)benzyl)-5-fluoro-2-(methoxy-d3)benzamide] | 0.7 nM | 0.8 nM
COc1ccc(C)nc1C(=O)NCc1ccc(-c2nc(C3CCCOC3)n3ccnc(N)c23)cc1 (centres unmarked) [Compound 19, N-(4-(8-amino-3-(tetrahydro-2H-pyran-3-yl)imidazo[1,5-a]pyrazin-1-yl)benzyl)-3-methoxy-6-methylpicolinamide] | 212 nM | 201 nM
COc1ccc(F)cc1C(=O)NCc1ccc(-c2nc(C3CCCOC3)n3ccnc(N)c23)cc1 (centres unmarked) [Compound 21, N-(4-(8-amino-3-(tetrahydro-2H-pyran-3-yl)imidazo[1,5-a]pyrazin-1-yl)benzyl)-5-fluoro-2-methoxybenzamide] | 1.7 nM | 1.8 nM
COc1ccc(F)cc1C(=O)NCc1ccc(-c2nc([C@@H]3CCNC3)n3ncnc(N)c23)cc1 [Compound 22, (R)-N-(4-(4-amino-7-(pyrrolidin-3-yl)imidazo[5,1-f][1,2,4]triazin-5-yl)benzyl)-5-fluoro-2-methoxybenzamide] | 155 nM | 36 nM
